In patent publication US7407954B2, “Thieno-(1,3)-oxazin-4-ones with lipase inhibiting activity” (Alizyme Therapeutics Limited, priority 2001, dated 2008):

Assays:
human pancreatic lipase = target: T1, human pancreatic lipase (Homo sapiens, UniProt P16233); assay: Lipase activity, quinine diimine dye colorimetric assay (Sigma Lipase-PS); type: biochemical
T1 sequence (P16233 17-465): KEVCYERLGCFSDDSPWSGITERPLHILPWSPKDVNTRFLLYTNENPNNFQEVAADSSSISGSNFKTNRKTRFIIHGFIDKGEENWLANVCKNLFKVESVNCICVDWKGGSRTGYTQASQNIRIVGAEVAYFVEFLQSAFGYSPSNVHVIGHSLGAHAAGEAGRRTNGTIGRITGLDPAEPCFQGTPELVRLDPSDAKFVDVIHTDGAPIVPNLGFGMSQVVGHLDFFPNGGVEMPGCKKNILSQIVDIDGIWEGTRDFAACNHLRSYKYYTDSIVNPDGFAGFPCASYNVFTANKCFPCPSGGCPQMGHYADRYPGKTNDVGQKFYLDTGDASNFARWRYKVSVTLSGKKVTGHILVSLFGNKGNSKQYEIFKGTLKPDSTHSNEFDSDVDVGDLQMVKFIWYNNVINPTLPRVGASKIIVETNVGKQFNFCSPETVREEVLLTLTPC
Procedure: Measurement of Lipase Activity Using a Quinine Diimine Dye Calorimetric Assay
The inhibitory activity of the selected compounds to pancreatic lipase was measured in the following assay available from Sigma Ltd (Lipase-PS™, catalog number 805-A):
The glycerol released from the action of pancreatic and monoglyceride lipase was oxidised to release H2O2. The peroxidase reaction step then produces a quinine dye which is pink in colour and absorbs light at a wavelength of 550 nm.
Individual test compounds were dissolved in DMSO (dimethyl sulphoxide) at 10 mM. DMSO was used to avoid any problems with compounds being water-insoluble.
For individual compounds, the IC50 (concentration at which lipase activity is inhibited to one half of the maximum) was calculated by measuring the inhibitory activity from log-dose response curves using a range of inhibitor concentrations.
A range of standard compounds were assayed in the quinine dye calorimetric assay which provides a rapid method to measure lipase inhibitory activity.

[1] = target: T2, porcine pancreatic lipase (Sus scrofa, UniProt P00591); assay: Lipase enzyme activity, NaOH titration method (lipid micelles); type: biochemical; settings: NaOH titration assay
T2 sequence (P00591 1-450): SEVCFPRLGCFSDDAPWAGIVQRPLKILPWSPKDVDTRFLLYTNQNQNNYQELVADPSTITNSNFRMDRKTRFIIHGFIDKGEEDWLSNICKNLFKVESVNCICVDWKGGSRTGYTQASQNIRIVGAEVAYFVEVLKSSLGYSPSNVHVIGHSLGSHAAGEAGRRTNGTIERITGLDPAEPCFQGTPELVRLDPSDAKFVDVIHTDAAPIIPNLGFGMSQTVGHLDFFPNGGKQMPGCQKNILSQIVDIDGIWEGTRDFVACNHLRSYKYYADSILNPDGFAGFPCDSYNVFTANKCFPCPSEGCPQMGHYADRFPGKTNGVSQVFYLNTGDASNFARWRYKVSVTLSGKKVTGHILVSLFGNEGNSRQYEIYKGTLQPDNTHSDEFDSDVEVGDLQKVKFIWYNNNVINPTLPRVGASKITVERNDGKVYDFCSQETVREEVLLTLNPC
Procedure: Measurement of Lipase Enzyme Activity Using a NaOH Titration Method
The inhibitory activity of the selected compound to pancreatic lipase was measured in the assay described in Pasquier et al; 1996, Vol 7, Nutritional Biochemistry, 293-302.
Log dose/response curves were constructed using a range of inhibitor concentrations.
Selected thieno-oxazinone compounds were tested in the NaOH titration assay. In this assay, the activity of porcine pancreatic lipase in a system containing lipid micelles is recorded. These conditions are therefore similar to those encountered in the gastrointestinal tract.

**Q.** What does the source list for `O=c1oc(Nc2ccc(Oc3ccccc3)cc2)nc2sc(Cc3ccccc3)cc12` [Compound 50, 6-Phenylmethyl-2-(4-phenoxy)phenylamino-4H-thieno[2,3-d][1,3]oxazin-4-one]?
**A.** IC50 (human pancreatic lipase): < 100 nM; IC50 [1]: ≤ 1000 nM
